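Dose response: 5 concentrations. Exposure: 48 h. Format: 96-well plates. Endpoint: linear interpolation; highest concentration if not reached. TGI denotes the concentration required for complete inhibition of growth.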
Columns and labels:
Test in all cases: growth of human tumour cells (NCI), 48 h
SK-MEL-2 melanoma = system: SK-MEL-2 melanoma
786-0 renal = system: 786-0 renal
OVCAR-3 ovarian = system: OVCAR-3 ovarian
NCI/ADR-RES ovarian = system: NCI/ADR-RES ovarian
DU-145 prostate = system: DU-145 prostate
MCF7 breast = system: MCF7 breast
SK-MEL-28 melanoma = system: SK-MEL-28 melanoma
EKVX NSCLC = system: EKVX NSCLC
NCI-H460 lung = system: NCI-H460 lung
CCRF-CEM leukemia = system: CCRF-CEM leukemia
ACHN renal = system: ACHN renal
SF-539 CNS = system: SF-539 CNS
MDA-N = system: MDA-N
BT-549 breast = system: BT-549 breast
MDA-MB-231 breast = system: MDA-MB-231 breast
SN12C renal = system: SN12C renal
RXF 393 renal = system: RXF 393 renal
SNB-75 CNS = system: SNB-75 CNS
HOP-62 NSCLC = system: HOP-62 NSCLC
OVCAR-8 ovarian = system: OVCAR-8 ovarian
SK-MEL-5 melanoma = system: SK-MEL-5 melanoma
SW-620 colon = system: SW-620 colon
HCC-2998 colon = system: HCC-2998 colon
RPMI-8226 leukemia = system: RPMI-8226 leukemia
IGROV1 ovarian = system: IGROV1 ovarian
OVCAR-4 ovarian = system: OVCAR-4 ovarian
CAKI-1 renal = system: CAKI-1 renal
HCT-116 colon = system: HCT-116 colon
UO-31 renal = system: UO-31 renal
HT29 colon = system: HT29 colon
PC-3 prostate = system: PC-3 prostate
KM12 colon = system: KM12 colon
HCT-15 colon = system: HCT-15 colon
UACC-257 melanoma = system: UACC-257 melanoma
K-562 leukemia = system: K-562 leukemia
TK-10 renal = system: TK-10 renal
SR leukemia = system: SR leukemia
A498 renal = system: A498 renal
SF-295 CNS = system: SF-295 CNS
UACC-62 melanoma = system: UACC-62 melanoma
U251 CNS = system: U251 CNS
M14 melanoma = system: M14 melanoma
HOP-92 NSCLC = system: HOP-92 NSCLC
OVCAR-5 ovarian = system: OVCAR-5 ovarian
HS 578T breast = system: HS 578T breast
SNB-19 CNS = system: SNB-19 CNS
NCI-H23 lung = system: NCI-H23 lung
MDA-MB-435 = system: MDA-MB-435
COLO 205 colon = system: COLO 205 colon
A549 NSCLC = system: A549 NSCLC
MALME-3M melanoma = system: MALME-3M melanoma
NCI-H226 lung = system: NCI-H226 lung
SF-268 CNS = system: SF-268 CNS
LOX IMVI melanoma = system: LOX IMVI melanoma
NCI-H522 lung = system: NCI-H522 lung
T-47D breast = system: T-47D breast
SK-OV-3 ovarian = system: SK-OV-3 ovarian

Measured: TGI

Cc1cc2nc(C#N)c(N3CCN(c4ccc([N+](=O)[O-])cc4)CC3)nc2cc1C
81.2 µM: SF-539 CNS
> 92.9 µM: 786-0 renal
95.5 µM: HS 578T breast
> 100 µM: all other assays above

— PubChem BioAssay (NCI)
